Laboratory results as given in patent US20220378756A1, “ACTIVATING PYRUVATE KINASE R” (FORMA Therapeutics, Inc., priority 2019, published 2022).
Entries after “also recorded” stand apart in the source; their conditions may differ.

Key:
[1] = test system: estradiol and testosterone levels; experiment: Circulating estradiol and testosterone in healthy subjects, 14 days; type: in vivo, human; details: healthy subjects, 100, 200, 300 mg BID and 400 mg QD for 14 days; days 8, 14, 17
Procedure: Effects on circulating levels of estradiol and testosterone in male and female healthy subjects receiving Compound 1 or placebo for a treatment period of 14 days were evaluated. Compound 1 was administered twice daily (BID) at dose levels of 100 mg, 200 mg, and 300 mg, and once daily (QD) at a dose level of 400 mg. Each dosing cohort was comprised of 9 subjects treated with Compound 1 and 3 subjects treated with placebo. Testosterone and estradiol levels were assessed prior to dosing (baseline), and then on days 8, 14 and 17.

[2] = Phase 1 SAD/MAD, healthy volunteers: safety; type: in vivo, human
From the text: This is a first-in-human (FIH), Phase 1 study of Compound 1 that will characterize the safety, PK, and PD of Compound 1 after a single dose and after repeated dosing first in healthy adult volunteers and then in adolescents or adults with sickle cell disease. Initially, a dose range of Compound 1 in single ascending dose (SAD) escalation cohorts will be explored in healthy subjects. Enrollment of healthy subjects into 2-week multiple ascending dose (MAD) escalation cohorts will be initiated once the safety and PK from at least two SAD cohorts is available to inform the doses for the 2-week MAD portion of the study. The MAD cohorts will then run in parallel to the single dose cohorts. A single dose cohort is planned to understand food effects (FE) on the PK of Compound 1. […] Multiple dose studies in SCD subjects will then be initiated upon completion of MAD studies in healthy volunteers. Compound 1 will be administered in 25 mg and 100 mg tablets delivered orally.
In this study, SAD/MAD cohorts are randomized (3 to 1) to receive Compound 1 or placebo (P). Compound 1 was evaluated first in 4 healthy SAD cohorts and 4 healthy MAD (14-day dosing period) cohorts. Based on the safety, and PK/PD profile from HS, Compound 1 is then evaluated in 1 SCD SAD cohort and 2 SCD MAD cohorts. Specifically, based on the safety and pharmacokinetic/pharmacodynamics (PK/PD) profile in healthy volunteer studies, Compound 1 is evaluated in patients (pts) with SCD, first in a single dose (SD or SAD) cohort and then in multiple-dose (MD or MAD) cohorts (14-day and 12-week). Safety assessments include AEs, vital signs, ECGs and laboratory parameters. PK/PD blood sampling was performed on Day 1 (SAD/MAD) and Day 14 (MAD) and up to 72 h after the last dose and at the end-of-study visit. PD parameters included 2,3-DPG, ATP, and p50 in all cohorts with additional PD studies (including oxygen scan) performed only in the SCD cohorts. PD parameters included 2,3-DPG, ATP, p50, RBC deformability with controlled deoxygenation and reoxygenation (Lorrca® oxygen scan) and varying osmolality (Lorrca® osmoscan)). To maintain study blind, pt identifiers were removed when needed.
Four healthy SAD cohorts were evaluated at doses of 200, 400, 700, and 1000 mg, and four healthy MAD cohorts received 200 to 600 mg total daily doses for 14 days at QD or BID dosing (100 mg BID, 200 mg BID, 300 mg BID, and 400 mg QD). In the food effect (FE) cohort, 10 healthy subjects received 200 mg of Compound 1 QD with and without food.

[3] = test system: Berkeley SS mouse (human HgbS); experiment: Berkeley SS mouse model of SCD, 7 days in chow; type: in vivo; details: 1000 ppm in chow
From the text: Targeted gene deletions and a human transgene in the Berkeley SS mouse model result in mice that express human HgbS almost exclusively (Pászty C. Transgenic and gene knock-out mouse models of sickle cell anemia and the thalassemias. Curr Opin Hematol. 1997 March; 4(2):88-93) and mimic the genetic, hematologic, and histopathologic features of SCD in humans. These include irreversibly sickled RBCs, anemia, and multi-organ pathology.
The effects of Compound 1 on Hgb affinity for oxygen, percentage of sickled cells, and/or Hgb were evaluated in the Berkley SS mouse. Two studies were conducted where mice received 0 or 1000 ppm Compound 1 ad libitum in mouse chow for 7 days. Blood was drawn on Day 7 and analyzed under hypoxic conditions. Red cell parameters were measured by ADVIA.

[4] = test system: 2,3-DPG and ATP levels in whole blood; experiment: PK/PD studies in wild type mice, QDx7 oral gavage; type: in vivo, Balb/c mice
Procedure: Two pharmacokinetic (PK)/pharmacodynamic (PD) studies were conducted in Balb/c mice that were administered Compound 1 once daily by oral gavage (formulated in 10% Cremophor EL/10% PG/80% DI water) for 7 days (QD×7) at doses of 0 (vehicle), 3.75, 7.5, 15, 30, 60 mg/kg (Study 1); 0 (vehicle), 7.5, 15, 30, 60, 120, or 240 mg/kg (Study 2). On the 7th day, whole blood was collected 24 hours after dosing and snap frozen. Samples were later thawed and analyzed by LC/MS for 2,3-DPG and ATP levels.

[5] = Preclinical safety and in vitro panels

Q: With O=C([C@H](CO)c1ccccc1)N1CC2=C(C1)CN(S(=O)(=O)c1cnc3c(c1)OCCO3)C2 (single isomer, unassigned) [Compound 1] as the molecule, how does the “change from baseline for testosterone and estradiol levels” value [1] read?
A: No effect on testosterone or estradiol levels; also recorded: no statistically significant changes

Q: What about the “Grade 1 headache, incidence” value ([2]; HS receiving 14 days of dosing) of the same molecule?
A: 28%

Q: What about the “Grade 1 headache, incidence” value ([2]; HS receiving a single dose) of the same molecule?
A: 4%

Q: What about the “related TEAE of grade 2 or less: headache” value ([2]; MAD cohorts) of the same molecule?
A: 4 n

Q: What about the “related TEAE of grade 2 or less: palpitations” value ([2]; MAD cohorts) of the same molecule?
A: 1 n

Q: What about the “related TEAE of grade 2 or less: somnolence” value ([2]; MAD cohorts) of the same molecule?
A: 1 n

Q: What about the “Any TEAE, n (%)” value ([2]; MAD, N = 36) of the same molecule?
A: 15 (42) n (%)

Q: And the “Any grade 3 or greater TEAE, n (%)” value ([2]; MAD, N = 36)?
A: 0 n (%)

Q: And the “Drug interruption, reduction, or discontinuation due to TEAE, n (%)” value ([2]; MAD, N = 36)?
A: 0 n (%)

Q: And the “serious adverse events / AEs leading to withdrawal” value ([2]; SAD and MAD cohorts of healthy volunteers)?
A: No serious adverse events (SAEs) or AEs leading to withdrawal

Q: What about the “related TEAE of grade 2 or less: headache” value ([2]; SAD cohorts) of the same molecule?
A: 1 n

Q: And the “related TEAE of grade 2 or less: transient ventricular tachycardia” value ([2]; SAD cohorts)?
A: 1 n

Q: And the “Any TEAE, n (%)” value ([2]; SAD, N = 24)?
A: 5 (21) n (%)

Q: And the “Any grade 3 or greater TEAE, n (%)” value ([2]; SAD, N = 24)?
A: 1 (4) n (%)

Q: And the “Drug interruption, reduction, or discontinuation due to TEAE, n (%)” value ([2]; SAD, N = 24)?
A: 0 n (%)

Q: What about the Hgb increase [3] of the same molecule?
A: ≈ 1 g/dL

Q: And the “reduction of 2,3-DPG levels in blood” value ([4]; 120 and 240 mg/kg (≥120 mg/kg) QDx7 oral)?
A: > 30%

Q: What about the “ATP increase compared to vehicle” value ([4]; Study 1, 30 mg/kg QDx7 oral) of the same molecule?
A: 21%

Q: What about the “ATP increase compared to vehicle” value ([4]; Study 1, 60 mg/kg QDx7 oral) of the same molecule?
A: 79%

Q: What about the ATP increase ([4]; Study 2, 240 mg/kg QDx7 oral (highest dose)) of the same molecule?
A: 45%

Q: What about the “maximum ATP increase compared to vehicle” value ([4]; Study 2, doses up to 120 mg/kg QDx7 oral) of the same molecule?
A: ~110%

Q: What about the tolerability ([4]; both studies, up to 240 mg/kg QDx7, no adverse clinical signs, no body weight difference) of the same molecule?
A: well tolerated

Q: What about the “reduction of 2,3-DPG levels in blood” value ([4]; ≥15 mg/kg QDx7 oral, 24 h after dosing on day 7) of the same molecule?
A: > 20%

Q: What about the ATP increase ([4]; ≥60 mg/kg) of the same molecule?
A: > 40%

Q: What about the “preclinical evidence of arrhythmia risk, mutagenicity, nonspecific binding” value [5] of the same molecule?
A: has not demonstrated any preclinical evidence of arrhythmia risk, mutagenicity, or nonspecific binding activity
